According to EP2582674B1 (Cymabay Therapeutics, Inc., priority 2010, dated 2011):

Target: T1, human GPR120 (Homo sapiens, UniProt Q5NUL3)
T1 construct: host or cells: HEK293 cells co-expressing Gqi5
T1 sequence (Q5NUL3 1-361): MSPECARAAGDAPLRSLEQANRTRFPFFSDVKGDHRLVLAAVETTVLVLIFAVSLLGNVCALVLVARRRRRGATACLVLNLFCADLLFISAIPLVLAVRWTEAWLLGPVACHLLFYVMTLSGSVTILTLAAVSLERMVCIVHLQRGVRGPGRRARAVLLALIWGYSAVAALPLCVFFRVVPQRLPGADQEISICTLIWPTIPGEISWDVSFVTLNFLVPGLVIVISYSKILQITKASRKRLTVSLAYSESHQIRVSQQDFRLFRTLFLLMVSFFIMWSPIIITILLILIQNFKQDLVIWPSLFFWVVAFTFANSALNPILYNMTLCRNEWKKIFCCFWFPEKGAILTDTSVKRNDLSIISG
Experiment: Intracellular Ca2+ assay in human GPR120 stable cell line (FLIPR Calcium 4 dye, Flexstation)
Format: cell-based
Conditions: for EC50: eight concentrations from 0.00001 to 20 µM, changes (Max-Min) of fluorescence intensity; for activity at 2.5 µM: HEK293, % activity at 2.5 µM compared to the maximal activity of the compound of Example 25 at 2.5 µM (=100%), read-out: % Activity (Ex. 25 Reference Compound); for activity at 2.5 µM / activity at 5 µM: HEK293 cells co-expressing Gqi5; for activity at 5 µM: HEK293, % activity at 5 µM compared to the maximal activity of GW9508 at 6.7 µM (=100%), read-out: %Activity (GW9508 Reference Compound)

SMILES | EC50 | activity at 2.5 µM | activity at 5 µM
CC(Cc1ccc(OCc2cc(Br)cc3c2OC(C)(C)C3)cc1)C(=O)O (centres unmarked) [Example 81, 3-(4-((5-bromo-2,2-dimethyl-2,3-dihydrobenzofuran-7-yl)methoxy)phenyl)-2-methylpropanoic acid] | ≤ 1000 nM |  | 
CC1(C)Cc2cc(F)cc(COc3ccc4c(c3)CCC4CC(=O)O)c2O1 (centres unmarked) [Example 37, 2-(5-((5-fluoro-2,2-dimethyl-2,3-dihydrobenzofuran-7-yl)methoxy)-2,3-dihydro-1H-inden-1-yl)acetic acid] |  |  | 125%
CC(C)Oc1cc(OCc2cc(F)cc3c2OC(C)(C)C3)ccc1CCC(=O)O [Example 115, 3-(4-((5-fluoro-2,2-dimethyl-2,3-dihydrobenzofuran-7-yl)methoxy)-2-isopropoxyphenyl)propanoic acid] |  | 152% | 
COc1cc(COc2ccc(CC(C)C(=O)O)cc2)c2c(c1)CC(C)(C)O2 (centres unmarked) [Example 108, 3-(4-((5-methoxy-2,2-dimethyl-2,3-dihydrobenzofuran-7-yl)methoxy)phenyl)-2-methylpropanoic acid] |  | 144% | 
CC(Cc1ccc(OCc2cc(Cl)cc3c2OC(C)(C)C3O)c(F)c1)C(=O)O (centres unmarked) [Example 80, 3-(4-((5-chloro-3-hydroxy-2,2-dimethyl-2,3-dihydrobenzofuran-7-yl)methoxy)-3-fluorophenyl)-2-methylpropanoic acid] | 1000 to 10000 nM | 86.2% | 
CC1(C)Cc2cc(Cl)cc(CNc3ccc(CCC(=O)O)cc3)c2O1 [Example 127, 3-(4-(((5-chloro-2,2-dimethyl-2,3-dihydrobenzofuran-7-yl)methyl)amino)phenyl) propanoic acid] |  | 153% | 
CC(Cc1cc(F)c(OCc2cccc3c2OC(C)C3C)c(F)c1)C(=O)O (centres unmarked) [Example 40, 3-(4-((2,3-dimethyl-2,3-dihydrobenzofuran-7-yl)methoxy)-3,5-difluorophenyl)-2-methylpropanoic acid] |  |  | 95.3%

The next lines start with the values.

EC50 | activity at 2.5 µM | activity at 5 µM | SMILES
 | 111% |  | Cc1cc(OCc2cc(F)cc3c2OC(C)(C)C3)c(C)cc1CCC(=O)O [Example 206, 3-(4-((5-fluoro-2,2-dimethyl-2,3-dihydrobenzofuran-7-yl)methoxy)-2,5-dimethylphenyl)propanoic acid]
 | 119% |  | [2H]C([2H])(Oc1ccc(CCC(=O)O)c(CC)c1F)c1cc(F)cc2c1OC(C)(C)C2 [Example 228, 3-(4-(dideuterio(5-fluoro-2,2-dimethyl-2,3-dihydrobenzofuran-7-yl)methoxy)-3-fluoro-2-ethylphenyl)propanoic acid]
 | 42.7% |  | CC(C)C(CC(=O)O)c1ccc(OCc2cc(Cl)cc3c2OC(C)(C)C3)cc1 (centres unmarked) [Example 266, 3-(4-((5-chloro-2,2-dimethyl-2,3-dihydrobenzofuran-7-yl)methoxy)phenyl)-4-methylpentanoic acid]
1000 to 10000 nM | 104% |  | CC(Cc1ccc(OCc2cc(Cl)cc3c2OC(C)(C)C3O)cc1)C(=O)O (centres unmarked) [Example 130, 3-(4-((5-chloro-3-hydroxy-2,2-dimethyl-2,3-dihydrobenzofuran-7-yl)methoxy)phenyl)-2-methylpropanoic acid]
1000 to 10000 nM | 61.1% |  | CC(Cc1cccc(OCc2cc(Cl)cc3c2OC(C)(C)C3)c1)C(=O)O (centres unmarked) [Example 251, 3-(3-((5-chloro-2,2-dimethyl-2,3-dihydrobenzofuran-7-yl)methoxy)phenyl)-2-methylpropanoic acid]
 | 118% |  | CC(C)Oc1ncccc1COc1ccc2c(c1)CCC2CC(=O)O (centres unmarked) [Example 259, 2-(5-((2-isopropoxypyridin-3-yl)methoxy)-2,3-dihydro-1H-inden-1-yl)acetic acid]
 | 137% |  | CC1(C)Cc2cc(F)cc(COc3ccc4c(CC(=O)O)coc4c3)c2O1 [Example 262, 2-(6-((5-fluoro-2,2-dimethyl-2,3-dihydrobenzofuran-7-yl)methoxy)benzofuran-3-yl)acetic acid]
